Data on 28 compounds can be found in patent US11820766B2, “Monoacylglycerol lipase modulators” (Janssen Pharmaceutica NV, priority 2018, dated 2023).

This test has as its target T1, human MGL from HeLa cells (Homo sapiens, UniProt Q99685).
T1 construct: combining endogenously expressed MGL from HeLa cells with test compounds; endogenous in cells; host or cells: HeLa cells / cell homogenates
T1 sequence (Q99685 1-303): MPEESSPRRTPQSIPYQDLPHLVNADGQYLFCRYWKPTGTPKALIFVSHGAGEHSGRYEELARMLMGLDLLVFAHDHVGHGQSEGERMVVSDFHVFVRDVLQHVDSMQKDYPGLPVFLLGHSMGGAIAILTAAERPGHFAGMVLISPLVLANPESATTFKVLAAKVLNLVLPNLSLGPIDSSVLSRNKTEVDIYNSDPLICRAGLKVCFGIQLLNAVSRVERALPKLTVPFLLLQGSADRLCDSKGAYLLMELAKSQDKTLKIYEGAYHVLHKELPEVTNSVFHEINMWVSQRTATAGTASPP
In words: In vitro MGL activity assay: [glycerol-1,3-3H]-oleyl glycerol cleavage by MGL from HeLa cells. The class given is biochemical. Conditions: 300 nM [Glycerol-1,3-3H]-oleyl glycerol, one hour incubation. From the text: MGL is the predominant hydrolase in HeLa cells/cell homogenates.
Broadly, the IC50 is the concentration needed to halve the response being measured. A high value points to weaker potency. On to `C[C@H]1c2nn(C)c(-c3cc(F)cc(F)c3)c2CCN1C(=O)c1ccc2ncc(C(F)(F)F)cc2c1` [Example 165, (S)-(3-(3,5-Difluorophenyl)-2,7-dimethyl-2,4,5,7-tetrahydro-6H-pyrazolo[3,4-c]pyridin-6-yl)(3-(trifluoromethyl)quinolin-6-yl)methanone], for which the IC50 was 103 nM.

As to `C[C@H]1c2nn(C)c(-c3cc(F)cc(F)c3)c2CCN1C(=O)c1ccc2ncc(OCCF)cc2c1` [Example 166, (S)-(3-(3,5-Difluorophenyl)-2,7-dimethyl-2,4,5,7-tetrahydro-6H-pyrazolo[3,4-c]pyridin-6-yl)(3-(2-fluoroethoxy)quinolin-6-yl)methanone], the IC50 is 11.3 nM.

`CC1c2nn(C)c(-c3cc(F)cc(F)c3)c2CCN1C(=O)c1ccc2nccnc2c1` (stereo not shown) [Example 167, (3-(3,5-Difluorophenyl)-2,7-dimethyl-2,4,5,7-tetrahydro-6H-pyrazolo[3,4-c]pyridin-6-yl)(quinoxalin-6-yl)methanone]: the IC50 was 25.1 nM.

`C[C@H]1c2nn(C)c(-c3cc(F)cc(F)c3)c2CCN1C(=O)c1ccc2ncccc2n1` [Example 170] registered a half-inhibitory concentration (IC50) of 23.2 nM. The IC50 values of the last two compounds are within 1.5-fold of each other.

The compound `C[C@H]1c2nn(C)c(-c3cc(F)cc(F)c3)c2CCN1C(=O)c1cc2nccnc2cc1F` [Example 171, (S)-(3-(3,5-Difluorophenyl)-2,7-dimethyl-2,4,5,7-tetrahydro-6H-pyrazolo[3,4-c]pyridin-6-yl)(7-fluoroquinoxalin-6-yl)methanone] yielded a half-maximal inhibitory concentration (IC50) of 13 nM.

In turn, `Cc1nc2ccc(C(=O)N3CCc4c(nn(C)c4-c4cc(Cl)cc(Cl)c4)[C@@H]3C)cc2o1` [Example 172, (S)-(3-(3,5-Dichlorophenyl)-2,7-dimethyl-2,4,5,7-tetrahydro-6H-pyrazolo[3,4-c]pyridin-6-yl)(2-methylbenzo[d]oxazol-6-yl)methanone] gave an IC50 of 4.89 nM.

For `C[C@H]1c2nn(C)c(-c3cc(Cl)cc(Cl)c3)c2CCN1C(=O)c1nn(C)c2ncccc12` [Example 173, (S)-(3-(3,5-Dichlorophenyl)-2,7-dimethyl-2,4,5,7-tetrahydro-6H-pyrazolo[3,4-c]pyridin-6-yl)(1-methyl-1H-pyrazolo[3,4-b]pyridin-3-yl)methanone], the midpoint of inhibition, the IC50, lay at 18 nM.

On to `C[C@H]1c2nn(C)c(-c3cc(Cl)cc(Cl)c3)c2CCN1C(=O)c1ccc2ncccc2c1` [Example 174, (S)-(3-(3,5-Dichlorophenyl)-2,7-dimethyl-2,4,5,7-tetrahydro-6H-pyrazolo[3,4-c]pyridin-6-yl)(quinolin-6-yl)methanone], for which the IC50 turned out to be 2.62 nM.

Take `C[C@H]1c2nn(C)c(-c3cc(Cl)cc(Cl)c3)c2CCN1C(=O)c1ccc2nccnc2c1` [Example 175, (S)-(3-(3,5-Dichlorophenyl)-2,7-dimethyl-2,4,5,7-tetrahydro-6H-pyrazolo[3,4-c]pyridin-6-yl)(quinoxalin-6-yl)methanone]: it took 6.24 nM to reach half-maximal inhibition (IC50).

In turn, `Cc1cnc2cc(C(=O)N3CCc4c(nn(C)c4-c4cc(Cl)cc(Cl)c4)[C@@H]3C)ccc2n1` [Example 176, (S)-(3-(3,5-Dichlorophenyl)-2,7-dimethyl-2,4,5,7-tetrahydro-6H-pyrazolo[3,4-c]pyridin-6-yl)(2-methylquinoxalin-6-yl)methanone] had an IC50 of 8.49 nM.

The compound `CC1c2nn(C)c(-c3cc(F)cc(Cl)c3)c2CCN1C(=O)c1ccc2ncccc2c1` (stereo not shown) [Example 177, (3-(3-Chloro-5-fluorophenyl)-2,7-dimethyl-2,4,5,7-tetrahydro-6H-pyrazolo[3,4-c]pyridin-6-yl)(quinolin-6-yl)methanone] registered a half-maximal inhibitory concentration (IC50) of 15.9 nM.

Take `C[C@H]1c2nn(C)c(-c3cc(F)cc(Cl)c3)c2CCN1C(=O)c1ccc2ncccc2c1` [Example 178, (S)-(3-(3-Chloro-5-fluorophenyl)-2,7-dimethyl-2,4,5,7-tetrahydro-6H-pyrazolo[3,4-c]pyridin-6-yl)(quinolin-6-yl)methanone]: the IC50 came out at 4.16 nM.

With `C[C@@H]1c2nn(C)c(-c3cc(F)cc(Cl)c3)c2CCN1C(=O)c1ccc2ncccc2c1` [Example 179, (R)-(3-(3-Chloro-5-fluorophenyl)-2,7-dimethyl-2,4,5,7-tetrahydro-6H-pyrazolo[3,4-c]pyridin-6-yl)(quinolin-6-yl)methanone], half-maximal inhibition (IC50) was put at 593 nM. Compared with the last compound, the IC50 is about 140-fold higher.

For the compound `CC1c2nn(C)c(-c3cc(F)cc(Cl)c3)c2CCN1C(=O)c1ccc2nccnc2c1` (stereo not shown) [Example 180, (3-(3-Chloro-5-fluorophenyl)-2,7-dimethyl-2,4,5,7-tetrahydro-6H-pyrazolo[3,4-c]pyridin-6-yl)(quinoxalin-6-yl)methanone], the midpoint of inhibition, the IC50, lay at 31.3 nM.

In turn, `C[C@H]1c2nn(C)c(-c3cc(F)cc(Cl)c3)c2CCN1C(=O)c1ccc2nccnc2c1` [Example 181, (S)-(3-(3-Chloro-5-fluorophenyl)-2,7-dimethyl-2,4,5,7-tetrahydro-6H-pyrazolo[3,4-c]pyridin-6-yl)(quinoxalin-6-yl)methanone] gave an IC50 of 6.37 nM. Compared with the last compound, the IC50 is about 4.9-fold lower.

As to `C[C@@H]1c2nn(C)c(-c3cc(F)cc(Cl)c3)c2CCN1C(=O)c1ccc2nccnc2c1` [Example 182, (R)-(3-(3-Chloro-5-fluorophenyl)-2,7-dimethyl-2,4,5,7-tetrahydro-6H-pyrazolo[3,4-c]pyridin-6-yl)(quinoxalin-6-yl)methanone], the IC50 is over 10000 nM.

The compound `Cc1ccc(-c2c3c(nn2C)[C@H](C)N(C(=O)c2ccc4nccnc4c2)CC3)cc1Cl` [Example 183, (S)-(3-(3-Chloro-4-methylphenyl)-2,7-dimethyl-2,4,5,7-tetrahydro-6H-pyrazolo[3,4-c]pyridin-6-yl)(quinoxalin-6-yl)methanone] showed a concentration for half-maximal inhibition (IC50) of 26.9 nM.

`C[C@H]1c2nn(C)c(-c3cc(F)cc(C(F)(F)F)c3)c2CCN1C(=O)c1ccc2nccnc2c1` [Example 184, (S)-(3-(3-Fluoro-5-(trifluoromethyl)phenyl)-2,7-dimethyl-2,4,5,7-tetrahydro-6H-pyrazolo[3,4-c]pyridin-6-yl)(quinoxalin-6-yl)methanone]: 136 nM corresponded to half-maximal inhibition (IC50). Compared with the last compound, the IC50 is about 5.1-fold higher.

Consider `COc1ccc(-c2c3c(nn2C)[C@H](C)N(C(=O)c2ccc4nccnc4c2)CC3)cc1F` [Example 185, (S)-(3-(3-Fluoro-4-methoxyphenyl)-2,7-dimethyl-2,4,5,7-tetrahydro-6H-pyrazolo[3,4-c]pyridin-6-yl)(quinoxalin-6-yl)methanone], for which the IC50 stood at 386 nM. Against the preceding compound, the IC50 is about 2.8-fold higher.

For `COc1cc(F)cc(-c2c3c(nn2C)[C@H](C)N(C(=O)c2ccc4nccnc4c2)CC3)c1` [Example 186, (S)-(3-(3-Fluoro-5-methoxyphenyl)-2,7-dimethyl-2,4,5,7-tetrahydro-6H-pyrazolo[3,4-c]pyridin-6-yl)(quinoxalin-6-yl)methanone], the IC50 is 46 nM.

On to `COc1cc(F)cc(-c2c3c(nn2C)[C@H](C)N(C(=O)c2cc4nccnc4cc2F)CC3)c1` [Example 187, (S)-(3-(3-Fluoro-5-methoxyphenyl)-2,7-dimethyl-2,4,5,7-tetrahydro-6H-pyrazolo[3,4-c]pyridin-6-yl)(7-fluoroquinoxalin-6-yl)methanone], for which the IC50 came to 41.7 nM. This IC50 and that of the compound before are within 1.5-fold of each other.

Compound `COc1ccc(-c2c3c(nn2C)[C@H](C)N(C(=O)c2ccc4nccnc4c2)CC3)cc1Cl` [Example 188, (S)-(3-(3-Chloro-4-methoxyphenyl)-2,7-dimethyl-2,4,5,7-tetrahydro-6H-pyrazolo[3,4-c]pyridin-6-yl)(quinoxalin-6-yl)methanone] came in with a half-inhibitory concentration (IC50) of 105 nM.

In turn, `C[C@H]1c2nn(C)c(-c3ccc(OC(F)F)c(F)c3)c2CCN1C(=O)c1ccc2nccnc2c1` [Example 189, (S)-(3-(4-(Difluoromethoxy)-3-fluorophenyl)-2,7-dimethyl-2,4,5,7-tetrahydro-6H-pyrazolo[3,4-c]pyridin-6-yl)(quinoxalin-6-yl)methanone] came in with an IC50 of 102 nM.

For the compound `Cc1c(F)cc(-c2c3c(nn2C)[C@H](C)N(C(=O)c2ccc4nccnc4c2)CC3)cc1F` [Example 190, (S)-(3-(3,5-Difluoro-4-methylphenyl)-2,7-dimethyl-2,4,5,7-tetrahydro-6H-pyrazolo[3,4-c]pyridin-6-yl)(quinoxalin-6-yl)methanone], the midpoint of inhibition, the IC50, lay at 133 nM.

`COc1cccc(C(=O)N2CCc3c(nn(C)c3-c3cc(F)c(F)c(F)c3)[C@@H]2C)c1Cl` [Example 191, (S)-(2-Chloro-3-methoxyphenyl)(2,7-dimethyl-3-(3,4,5-trifluorophenyl)-2,4,5,7-tetrahydro-6H-pyrazolo[3,4-c]pyridin-6-yl)methanone] came in with an IC50 of 2.56 nM.

For the compound `COc1cc(Cl)cc(C(=O)N2CCc3c(nn(C)c3-c3cc(F)c(F)c(F)c3)[C@@H]2C)c1` [Example 192, (S)-(3-Chloro-5-methoxyphenyl)(2,7-dimethyl-3-(3,4,5-trifluorophenyl)-2,4,5,7-tetrahydro-6H-pyrazolo[3,4-c]pyridin-6-yl)methanone], the IC50 is 6.78 nM. This IC50 is about 2.6-fold higher than that of the compound before.

Compound `C[C@H]1c2nn(C)c(-c3cc(F)c(F)c(F)c3)c2CCN1C(=O)c1cc(F)ccc1-n1cccn1` [Example 193, (S)-(2,7-Dimethyl-3-(3,4,5-trifluorophenyl)-2,4,5,7-tetrahydro-6H-pyrazolo[3,4-c]pyridin-6-yl)(5-fluoro-2-(1H-pyrazol-1-yl)phenyl)methanone] had an IC50 of 75.5 nM.

For `C[C@H]1c2nn(C)c(-c3cc(F)c(F)c(F)c3)c2CCN1C(=O)c1cccc(-n2cncn2)c1` [Example 194, (S)-(3-(1H-1,2,4-Triazol-1-yl)phenyl)(2,7-dimethyl-3-(3,4,5-trifluorophenyl)-2,4,5,7-tetrahydro-6H-pyrazolo[3,4-c]pyridin-6-yl)methanone], the 50% inhibitory concentration (IC50) was 14.8 nM.
